Assay results published in publication PMC6002460, “Pharmacological evaluation of new constituents of “Spice”: synthetic cannabinoids based on indole, indazole, benzimidazole and carbazole scaffolds” (Forensic Toxicology, 2018).
Where two headings read alike, the source gives them in different places.

How the values were obtained:
[1] = target: CB2 receptor; set-up: method as in Wiley et al. [41]; conditions: versus 0.62 nM [3H]CP55,940; ref Wiley et al. [41]; cited from earlier work
[2] = target: T1, human GPR55 (Homo sapiens, UniProt Q9Y2T6); experiment: β-Arrestin PathHunter assay, recombinant CHO cells expressing GPR55; format: cell-based; conditions: for Human GPR55 % activation / Human GPR55 % inhibition: value in parentheses; for Human GPR55 % inhibition: antagonist mode versus LPI 1 µM
T1 construct: host or cells: CHO cells
T1 sequence (Q9Y2T6 whole entry): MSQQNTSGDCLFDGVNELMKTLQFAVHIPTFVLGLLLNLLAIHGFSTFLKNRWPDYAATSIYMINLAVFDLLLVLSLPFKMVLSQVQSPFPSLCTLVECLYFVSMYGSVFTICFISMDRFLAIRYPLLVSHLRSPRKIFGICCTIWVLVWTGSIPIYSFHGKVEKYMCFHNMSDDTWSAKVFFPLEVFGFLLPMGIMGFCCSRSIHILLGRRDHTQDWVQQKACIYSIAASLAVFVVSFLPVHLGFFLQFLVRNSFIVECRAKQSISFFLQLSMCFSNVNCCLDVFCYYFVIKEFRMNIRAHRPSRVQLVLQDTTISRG
Method: (§1) β-Arrestin assays were performed in recombinant CHO cells expressing either the human GPR18 or the human GPR55 as described before using the β-galactosidase enzyme fragment complementation technology (β-arrestin PathHunter™ assay; DiscoverX, Fremont, CA, USA).
(§2) The orphan receptors GPR18 and GPR55 can interact with certain natural and synthetic cannabinoids. […] Therefore, we investigated the new series of indole, indazole, benzimidazole and carbazole-derived structures in β-arrestin assays at GPR18 and GPR55 (Table 2). […] For the lipophilic substitutions, the following rank order of potency was observed: ethyl > methyl > chloro > fluoro. Therefore, it can be concluded that a lipophilic substitution in position 4 of the naphthyl residue was a requirement for GPR55 inhibition.

[3] = target: T2, human CB2 receptor (Homo sapiens, UniProt P34972); experiment: biochemical; format: binding; conditions: [3H]CP55,940 0.1 nM, CHO cell membranes; read-out: Ki ± SEM Human CB2
T2 construct: expressed in transfected cells; host or cells: CHO cells (membrane preparations)
T2 sequence (P34972 whole entry): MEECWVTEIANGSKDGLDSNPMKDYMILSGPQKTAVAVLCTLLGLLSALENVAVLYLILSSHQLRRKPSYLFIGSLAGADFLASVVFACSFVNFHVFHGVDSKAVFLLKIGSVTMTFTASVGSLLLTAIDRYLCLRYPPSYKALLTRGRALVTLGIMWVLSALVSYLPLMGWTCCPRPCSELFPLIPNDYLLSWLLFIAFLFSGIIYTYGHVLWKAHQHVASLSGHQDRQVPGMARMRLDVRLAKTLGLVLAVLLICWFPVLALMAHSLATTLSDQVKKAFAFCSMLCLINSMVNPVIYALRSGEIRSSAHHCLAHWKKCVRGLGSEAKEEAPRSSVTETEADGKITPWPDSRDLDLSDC

[4] = target: CB1 receptor; set-up: method as in Wiley et al. [41]; conditions: versus 0.62 nM [3H]CP55,940; ref Wiley et al. [41]; cited from earlier work
[5] = set-up: method as in Wiley et al. [41]; conditions: receptor subtype not stated; ref Wiley et al. [41]; read-out: EC50 in [35S]GTPγS assays; cited from earlier work
[6] = target: T3, human CB1 receptor (Homo sapiens, UniProt P21554); experiment: biochemical; format: binding; conditions: [3H]CP55,940 0.1 nM, CHO cell membranes; read-out: Ki ± SEM Human CB1
T3 construct: expressed in transfected cells; host or cells: CHO cells (membrane preparations)
T3 sequence (P21554 whole entry): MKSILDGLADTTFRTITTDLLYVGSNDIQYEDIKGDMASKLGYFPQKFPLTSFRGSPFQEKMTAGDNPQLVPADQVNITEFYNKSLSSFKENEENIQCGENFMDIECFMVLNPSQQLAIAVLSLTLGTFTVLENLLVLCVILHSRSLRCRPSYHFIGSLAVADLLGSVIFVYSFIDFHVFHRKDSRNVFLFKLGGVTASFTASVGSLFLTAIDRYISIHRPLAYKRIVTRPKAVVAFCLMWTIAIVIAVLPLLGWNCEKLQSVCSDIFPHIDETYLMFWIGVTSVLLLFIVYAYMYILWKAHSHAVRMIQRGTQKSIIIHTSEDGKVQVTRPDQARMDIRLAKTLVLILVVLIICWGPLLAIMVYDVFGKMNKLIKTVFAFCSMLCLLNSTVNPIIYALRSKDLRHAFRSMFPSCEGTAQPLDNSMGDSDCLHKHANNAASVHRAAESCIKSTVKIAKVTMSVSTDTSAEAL

[7] = target: T2, human CB2 receptor; experiment: cAMP accumulation assay, CHO cells stably expressing CB2; format: cell-based
Method: (§3) cAMP accumulation assays were performed also as previously described. Briefly, CHO cells stably expressing the respective human CB receptor subtype CB1 or CB2 were seeded overnight. […] After incubation for 15 min the buffer was removed, and the cells were lyzed. The amount of cAMP was determined in a radioligand binding assay by incubating 50 µL of the cell lysate with 3 nM [^3H]cAMP in the presence of protein preparations from bovine adrenal glands (cAMP binding protein). Bound and unbound radioligand were separated by rapid filtration through GF/B filters, and radioactivity was determined by liquid scintillation counting. To test for antagonistic activity, test compounds were added to Hank’s buffered salt solution (HBSS) containing 10% dimethyl sulfoxide (DMSO), 10 min after the application of Ro-20-1724, and the mixture was incubated for 20 min at 37 °C.
(§4) As a next step, we investigated the compounds in cAMP accumulation assays, to obtain information on their functionality (Fig. 3). CB receptors are Gi protein-coupled and thus reduce the levels of cAMP in the cells upon activation.

[8] = target: T3, human CB1 receptor; experiment: cAMP accumulation assay, CHO cells stably expressing CB1; format: cell-based
Method: as §3, §4

[9] = target: T4, human GPR18 (Homo sapiens, UniProt Q14330); experiment: β-Arrestin PathHunter assay, recombinant CHO cells expressing GPR18; format: cell-based; conditions: for Human GPR18 % activation / Human GPR18 % inhibition: value in parentheses
T4 construct: host or cells: CHO cells
T4 sequence (Q14330 1-331): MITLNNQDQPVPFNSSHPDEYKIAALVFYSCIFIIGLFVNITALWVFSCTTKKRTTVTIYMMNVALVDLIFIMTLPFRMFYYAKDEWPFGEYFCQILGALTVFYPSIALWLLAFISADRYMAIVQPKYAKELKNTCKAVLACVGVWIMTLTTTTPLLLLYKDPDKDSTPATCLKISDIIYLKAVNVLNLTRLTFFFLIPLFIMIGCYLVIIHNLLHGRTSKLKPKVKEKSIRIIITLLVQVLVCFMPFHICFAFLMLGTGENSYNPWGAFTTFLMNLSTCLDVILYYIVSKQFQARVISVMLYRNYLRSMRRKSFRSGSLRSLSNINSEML
Method: as §1, §2

[10] = target: CB2 receptor; set-up: method as in Bowden et al. [43]; conditions: HTRF cAMP accumulation; ref Bowden et al. [43]; cited from earlier work
[11] = target: CB1 receptor; set-up: method as in Bowden et al. [43]; conditions: HTRF cAMP accumulation; ref Bowden et al. [43]; cited from earlier work
[12] = target: CB1 receptor; conditions: membrane potential assay, cited from earlier work
[13] = target: CB2 receptor; conditions: membrane potential assay, cited from earlier work
[14] = system: rats; set-up: method as in PMID 27421060; conditions: cited from earlier work
[15] = target: T3, human CB1 receptor; set-up: method as in PMID 27429655; conditions: previous study; cited from earlier work
[16] = target: T1, human GPR55; conditions: previous study; cited from earlier work
[17] = compound at 10 µM, normalized to CP55,940 (1 µM)

SMILES | Human GPR55 % activation ([2]; agonist mode) [%] | Human GPR55 % inhibition [2] [%] | Ki [3] [nM] | Ki [6] [nM] | Human GPR18 % activation ([9]; agonist mode) [%] | Human GPR18 % inhibition ([9]; antagonist mode) [%] | EC50 [2] [nM] | IC50 [2] [nM] | EC50 [10] [nM] | EC50 [11] [nM] | EC50 [9] [nM] | IC50 [9] [nM] | also measured
O=C(c1cccc2ccccc12)c1nc2ccccc2n1CCCCCF [compound 42, FUBIMINA] | 16 | 44 | 99 ± 28.4 | 502 ± 181 | 42 | 14 | – | – | – | – | – | – | Ki [1]: 23.5 nM; EC50 ([2]; agonist mode, read-out: Human GPR55 EC50): > 10000 nM; IC50 ([2]; antagonist mode versus lysophosphatidylinositol (LPI, 1 µM), read-out: Human GPR55 IC50): > 10000 nM; Ki [4]: 296 nM; EC50 [5]: 2470 nM; CB2 receptor activation in cAMP accumulation assay (in words) [7, 17]: partial activation; CB1 receptor activation in cAMP accumulation assay (in words) [8, 17]: partial activation; EC50 ([9]; agonist mode, read-out: Human GPR18 EC50): > 10000 nM; IC50 ([9]; antagonist mode, read-out: Human GPR18 IC50): > 10000 nM
CC(C)(NC(=O)c1nn(CC2CCOCC2)c2ccccc12)c1ccccc1 [compound 33] | 11 | 7 | 1.38 ± 0.86 | 1.23 ± 0.2 | 11 | 9 | > 10000 | > 10000 | 0.59 | 0.1 | > 10000 | > 10000 | –
CC(C)(NC(=O)c1cn(CCCCCF)c2ccccc12)c1ccccc1 [compound 32, 5F-Cumyl-PICA] | 14 | – | 29.1 ± 2.4 | 1.37 ± 0.26 | 16 | – | > 10000 | > 10000 | 0.37 | < 0.1 | > 10000 | > 10000 | EC50 ([12]; ref Longworth et al. [51]): 2.8 nM; EC50 ([13]; ref Longworth et al. [51]): 39.6 nM
COC(=O)[C@@H](NC(=O)c1nn(Cc2ccc(F)cc2)c2ccccc12)C(C)(C)C [compound 12, MDMB-FUBINACA] | – | 30 | 0.13 ± 0.01 | 0.0985 ± 0.0291 | 18 | 31 | > 10000 | > 10000 | – | – | > 10000 | > 10000 | EC50 ([12]; ref Banister et al. [38]): 3.9 nM; EC50 ([13]; ref Banister et al. [38]): 55 nM; EC50 [7]: 0.756 nM; EC50 [8]: 0.0641 nM; hypothermal response [14]: highest hypothermal response
O=C(Oc1cccc2cccnc12)c1cn(CC2CCCCC2)c2ccccc12 [BB-22] | – | – | – | – | – | – | – | – | – | – | – | – | Ki [15]: 0.217 nM
CCc1ccc(C(=O)c2cn(CCCCCF)c3ccccc23)c2ccccc12 [EAM-2201] | – | – | – | – | – | – | – | – | – | – | – | – | IC50 [16]: 1860 nM
